Experimental data published in patent US12390447B2, “Sirtuin 6 protein deacylase (SIRT6) activators” (Wisconsin Alumni Research Foundation, priority 2019, dated 2025).

Columns and labels:
Format in all cases: biochemical
SIRT2 = biological target: T1, SIRT2 (Homo sapiens, UniProt Q8IXJ6); experiment: SIRT2 deacetylase activity against H3K9ac peptide
T1 sequence (Q8IXJ6 1-389): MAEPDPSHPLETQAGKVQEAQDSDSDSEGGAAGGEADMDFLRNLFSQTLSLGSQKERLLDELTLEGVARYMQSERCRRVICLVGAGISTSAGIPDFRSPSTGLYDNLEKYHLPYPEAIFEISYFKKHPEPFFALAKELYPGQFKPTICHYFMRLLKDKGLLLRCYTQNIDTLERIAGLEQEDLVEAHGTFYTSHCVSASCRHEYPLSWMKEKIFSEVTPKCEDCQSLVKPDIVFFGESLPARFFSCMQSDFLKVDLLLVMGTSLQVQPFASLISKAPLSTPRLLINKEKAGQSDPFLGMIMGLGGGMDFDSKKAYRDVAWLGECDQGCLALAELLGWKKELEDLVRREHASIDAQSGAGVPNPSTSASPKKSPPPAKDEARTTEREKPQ
Experimental: FIGS. 1A-F illustrate the identification of novel SIRT6 activators. (1A) Compound libraries BML-2803, BML-2800, and an additional set of 178 molecules were screened at 100 μM for their ability to stimulate SIRT6 (1 μM) deacetylation of H3K9ac peptide (20 μM) in the presence of 0.5 mM NAD^+. SIRT6 activity was measured by HPLC quantification of H3K9ac and deacetylated product (inset) and fold activations relative to DMSO control were determined and compiled. (1B) Fold-activation of SIRT6 (1 μM) determined in the presence of either 0-400 μM CL4, 0-150 μM TTNPB, 0-100 μM Lysophosphatidic acid (LPA), or 0-200 μM linoleoylglycine (LGly). Maximum fold-activation and EC50 determined by sigmoidal curve fit. […] Constants Km, H3K9ac and kcat were determined by fitting data to Michaelis-Menten equation. (1D) Fold-activations of SIRT1 (0.1 μM), SIRT2 (0.2 μM), SIRT3 (1 μM), SIRT5 (2 μM), and SIRT6 (1 μM) determined in the presence of CL4 (100 μM), TTNPB (50 μM), and LPA (50 μM) relative to DMSO control against 20 μM H3K9ac peptide and 0.5 mM NAD^+. […]
All sirtuin deacylation assays were carried out at 37° C. in 20 mM potassium phosphate pH 7.5 with 0.5 mM NAD^+, 10% DMSO, and 20 μM H3K9ac or H3K9myr peptides, unless otherwise noted in legend, and quenched by the addition of 2% TFA final. […] The product and substrate peaks were quantified and ratio of these allowed for quantification of product formation. […]

SIRT6 WT = SIRT6 WT (Homo sapiens, UniProt Q8N6T7); experiment: Steady-state deacetylation rate of SIRT6 WT with or without CL5D; details: SIRT6 WT 1 μM, H3K9ac 40 μM, CL5D 50 μM, 25 minutes
Sequence of SIRT6 WT (Q8N6T7 whole entry): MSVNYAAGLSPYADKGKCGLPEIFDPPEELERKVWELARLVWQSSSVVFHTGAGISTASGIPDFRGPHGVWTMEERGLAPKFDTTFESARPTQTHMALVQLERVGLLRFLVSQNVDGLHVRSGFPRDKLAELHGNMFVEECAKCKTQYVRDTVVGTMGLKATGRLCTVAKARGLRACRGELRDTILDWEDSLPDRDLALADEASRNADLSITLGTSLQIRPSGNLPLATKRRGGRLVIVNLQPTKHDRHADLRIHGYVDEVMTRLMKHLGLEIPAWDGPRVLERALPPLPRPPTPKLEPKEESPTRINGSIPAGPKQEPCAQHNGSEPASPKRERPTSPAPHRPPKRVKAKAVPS
Experimental: (§1) All sirtuin deacylation assays were carried out at 37° C. in 20 mM potassium phosphate pH 7.5 with 0.5 mM NAD^+, 10% DMSO, and 20 μM H3K9ac or H3K9myr peptides, unless otherwise noted in legend, and quenched by the addition of 2% TFA final. Steady-state reactions were constrained to less than 20% substrate turnover to prevent product inhibition. A variety of times were required to monitor SIRT6 deacetylation (2-60 minutes) under this restraint given the ability to strongly activate catalysis. In these cases, specific activities were determined and either reported as is or as fold-activation of specific activity. Deacylation reactions were analyzed by reversed phase high-performance liquid chromatography on a Kinetex C18 column (100 Å, 100×4.6 mm, 2.6 μm, Phenomenex) by monitoring the formation of the deacylated product at 214 nm. Deacetylation reactions were analyzed using a gradient of 33-100% B (30% acetonitrile with 0.05% TFA) in 8 min at 1.6 mL min^−1. Demyristoylation reactions were analyzed using a gradient of 3 to 100% B (acetonitrile with 0.05% TFA) in 10 min at 1.6 mL min^−1. The product and substrate peaks were quantified and ratio of these allowed for quantification of product formation. Three independent experiments were performed for each condition with averages being plotted and error bars representing the standard deviation of these replicates. […]

SIRT6 K160A = SIRT6 K160A (Homo sapiens, UniProt Q8N6T7, K160A); experiment: Steady-state deacetylation rate of SIRT6 K160A with or without CL5D; details: SIRT6 K160A 1 μM, H3K9ac 40 μM, CL5D 50 μM, 25 minutes
Sequence of SIRT6 K160A (Q8N6T7 whole entry K160A): as the sequence (Q8N6T7 whole entry) above, with K160A counted along it
Experimental: as §1

SIRT6 R65A = SIRT6 R65A (Homo sapiens, UniProt Q8N6T7, R65A); experiment: Steady-state deacetylation rate of SIRT6 R65A with or without CL5D; details: CL5D 50 μM
Sequence of SIRT6 R65A (Q8N6T7 whole entry R65A): as the sequence (Q8N6T7 whole entry) above, with R65A counted along it
Experimental: as §1

SIRT6 = SIRT6 (Homo sapiens, UniProt Q8N6T7); experiment: Burst kinetic analysis of SIRT6 deacetylation; details: SIRT6 10 μM, 400 μM H3K9ac peptide, 500 μM NAD+
Sequence of SIRT6 (Q8N6T7 whole entry): as the sequence (Q8N6T7 whole entry) above
Experimental: SIRT6 (10 μM) was mixed with either H3K9ac peptide (400 μM) or NAD^+ (500 μM) in 20 mM potassium phosphate pH 7.5 and preheated to 37° C. for 3 minutes. Reactions were initiated either through the addition of NAD^+ (500 μM final) or H3K9ac peptide (400 μM final) and quenched after 10-1800 seconds by the addition of 3% TFA final. For each experiment, a control reaction in which H3K9ac peptide was excluded was collected at each timepoint and subtracted from corresponding experimental reactions to control for NAD^+ degradation. Nicotinamide and deacetylated peptide product were quantified by reverse-phase HPLC as described in the rapid quench flow kinetics methods section.
To further dissect the catalytic step(s) in kcat/Km,H3K9ac that are enhanced in the presence of activator, reaction conditions were set up to identify the existence of product ‘bursts’ during the first catalytic turnover. High concentrations of SIRT6 (10 μM) in the presence of 400 μM H3K9ac peptide were rapidly mixed with 500 μM NAD^+, and after an acid quench at different times, the products nicotinamide and deacetylated peptide were resolved and quantified by HPLC. […] The order of substrate mixing had no effect on the product curves.

| Structure (SMILES) | specificity for SIRT6 over SIRT2 (SIRT2; CL4 100 μM, TTNPB 50 μM, LPA 50 μM) | SIRT2 deacetylase activity at high activator concentration (SIRT2; 400 μM compound) | RateCL5D (SIRT6 WT) [µM/min] | RateCL5D (SIRT6 K160A) [µM/min] | activation of SIRT6 R65A (in words) (SIRT6 R65A) | RateCL5D (SIRT6 R65A; SIRT6 R65A 1 μM, H3K9ac 40 μM, 25 minutes) [µM/min] | rate enhancement in the presence of CL5D (SIRT6) [fold] |
| --- | --- | --- | --- | --- | --- | --- | --- |
| O=C(O)c1ccc2c(c1)C(=O)N(c1ccc(NC(=O)c3ccc(Cl)cc3Cl)c(Cl)c1)C2=O [CL-4, 2-(3-chloro-4-(2,4-dichlorobenzamido)phenyl)-1,3-dioxoisoindoline-5-carboxylic acid] | greater than 19 fold |  |  |  |  |  |  |
| O=C(O)c1ccc2c(c1)C(=O)N(c1ccc(N(C(=O)c3c(Cl)cc(Cl)cc3Cl)C(=O)c3c(Cl)cc(Cl)cc3Cl)c(Cl)c1)C2=O [CL-5D, 2-(3-chloro-4-(2,4,6-trichloro-N-(2,4,6-trichlorobenzoyl)benzamido)phenyl)-1,3-dioxoisoindoline-5-carboxylic acid] |  | inhibited | 0.164 ± 0.008 | 0.126 ± 0.006 | cannot be activated | 0.014 ± 0.004 | 1.8 |
